Key:
[1] = target: c-kit (Homo sapiens, UniProt P10721); assay: c-kit assays of Examples 40 and 41 (AlphaScreen kinase assays at 10 and 100 μM ATP, 33P-ATP filter assay, M-07e SCF-stimulated proliferation and phosphorylation)
[2] = target: MAP4K4 (HGK) (Homo sapiens, UniProt O95819); assay: HGK biochemical assay (AlphaScreen); conditions: 10 μM ATP
Description: Substrate was 10 nM biotin-ERM (T567/T564/T558, Cell Signaling, Inc., cat#1344). MAP4K4 kinase was at 0.5 ng per sample.

[3] = target: T1, TrkA kinase (Homo sapiens, UniProt P04629); assay: TrkA biochemical assay (AlphaScreen); conditions: 100 μM ATP
T1 construct: purchased Upstate Biotech #14-571
T1 sequence (P04629 33-796): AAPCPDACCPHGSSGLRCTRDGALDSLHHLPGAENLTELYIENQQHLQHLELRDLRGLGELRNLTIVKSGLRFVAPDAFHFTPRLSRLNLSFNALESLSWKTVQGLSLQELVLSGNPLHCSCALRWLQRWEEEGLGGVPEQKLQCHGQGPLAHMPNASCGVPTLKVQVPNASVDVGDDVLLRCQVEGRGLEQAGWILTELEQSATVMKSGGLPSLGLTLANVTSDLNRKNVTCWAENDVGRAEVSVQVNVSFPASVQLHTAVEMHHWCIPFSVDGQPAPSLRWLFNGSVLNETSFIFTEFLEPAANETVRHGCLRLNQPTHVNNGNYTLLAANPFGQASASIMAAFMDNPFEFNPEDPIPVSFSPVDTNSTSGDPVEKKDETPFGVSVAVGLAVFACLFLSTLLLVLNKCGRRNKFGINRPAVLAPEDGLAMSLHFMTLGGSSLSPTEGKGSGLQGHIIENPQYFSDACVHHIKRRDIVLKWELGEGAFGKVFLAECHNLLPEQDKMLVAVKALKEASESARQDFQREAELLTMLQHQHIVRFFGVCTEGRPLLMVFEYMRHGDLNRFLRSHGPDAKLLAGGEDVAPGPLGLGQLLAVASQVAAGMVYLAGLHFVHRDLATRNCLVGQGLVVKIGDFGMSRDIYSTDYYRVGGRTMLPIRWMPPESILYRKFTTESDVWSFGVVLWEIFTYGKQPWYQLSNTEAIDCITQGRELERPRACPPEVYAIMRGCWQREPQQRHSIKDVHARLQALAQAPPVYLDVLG

[4] = tested on: cells with activating c-kit mutations; conditions: mutations in the catalytic region; cited from earlier work

Chain of c-kit (P10721 with tags, fused parts or gaps): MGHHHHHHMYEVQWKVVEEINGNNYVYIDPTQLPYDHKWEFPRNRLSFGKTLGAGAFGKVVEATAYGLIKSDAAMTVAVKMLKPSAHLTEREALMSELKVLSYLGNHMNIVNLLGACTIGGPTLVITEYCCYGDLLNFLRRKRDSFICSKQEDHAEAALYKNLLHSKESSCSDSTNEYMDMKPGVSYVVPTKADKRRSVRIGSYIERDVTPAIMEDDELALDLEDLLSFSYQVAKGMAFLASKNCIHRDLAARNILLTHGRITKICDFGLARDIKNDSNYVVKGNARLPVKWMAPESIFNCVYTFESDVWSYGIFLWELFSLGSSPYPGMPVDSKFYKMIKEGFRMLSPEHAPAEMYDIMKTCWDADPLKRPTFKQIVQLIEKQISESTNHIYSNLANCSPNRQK
Chain of MAP4K4 (HGK) (O95819 whole entry): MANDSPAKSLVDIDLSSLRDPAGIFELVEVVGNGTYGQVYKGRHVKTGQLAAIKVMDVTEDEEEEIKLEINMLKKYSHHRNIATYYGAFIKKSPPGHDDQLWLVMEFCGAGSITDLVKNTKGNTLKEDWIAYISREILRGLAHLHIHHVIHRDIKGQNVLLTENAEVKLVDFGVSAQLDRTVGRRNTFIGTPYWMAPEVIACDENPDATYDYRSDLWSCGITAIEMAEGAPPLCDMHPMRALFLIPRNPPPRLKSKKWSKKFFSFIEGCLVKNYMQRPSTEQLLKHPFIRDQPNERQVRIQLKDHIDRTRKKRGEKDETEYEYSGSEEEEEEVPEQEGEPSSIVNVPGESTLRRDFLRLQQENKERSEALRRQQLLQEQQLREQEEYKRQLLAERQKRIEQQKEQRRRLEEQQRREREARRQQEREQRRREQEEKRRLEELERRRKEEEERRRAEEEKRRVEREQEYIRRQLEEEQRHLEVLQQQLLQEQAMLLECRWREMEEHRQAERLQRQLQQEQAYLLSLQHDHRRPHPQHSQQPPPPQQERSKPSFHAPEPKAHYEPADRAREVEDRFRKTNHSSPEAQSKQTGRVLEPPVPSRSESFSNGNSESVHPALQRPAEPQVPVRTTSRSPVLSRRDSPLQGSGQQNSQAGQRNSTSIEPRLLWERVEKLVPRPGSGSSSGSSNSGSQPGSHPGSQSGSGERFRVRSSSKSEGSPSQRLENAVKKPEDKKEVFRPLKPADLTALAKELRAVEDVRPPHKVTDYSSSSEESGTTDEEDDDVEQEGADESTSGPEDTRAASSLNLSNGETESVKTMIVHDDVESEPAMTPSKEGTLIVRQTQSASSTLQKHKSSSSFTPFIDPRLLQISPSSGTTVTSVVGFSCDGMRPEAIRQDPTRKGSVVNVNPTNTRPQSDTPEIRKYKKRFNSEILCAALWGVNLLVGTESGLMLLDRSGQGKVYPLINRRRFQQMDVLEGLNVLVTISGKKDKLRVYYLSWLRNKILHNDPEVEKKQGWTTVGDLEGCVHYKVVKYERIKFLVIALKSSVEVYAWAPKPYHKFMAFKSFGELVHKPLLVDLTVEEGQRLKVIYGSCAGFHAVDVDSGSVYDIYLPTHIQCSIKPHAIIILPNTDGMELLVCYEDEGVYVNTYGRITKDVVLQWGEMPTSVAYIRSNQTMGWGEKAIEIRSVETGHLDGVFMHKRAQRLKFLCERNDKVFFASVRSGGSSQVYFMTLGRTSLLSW

Row | IC50 [1] | IC50 [2] | IC50 [3] | SMILES | inhibition of cells with c-kit mutations [4]
1 | < 1000 nM | < 1000 nM |  | Fc1ccc(CNc2nc(Cl)c(Cc3c[nH]c4ncc(Cl)cc34)s2)nc1 [P-0240, [4-Chloro-5-(5-chloro-1H-pyrrolo[2,3-b]pyridin-3-ylmethyl)-thiazol-2-yl]-(5-fluoro-pyridin-2-ylmethyl)-amine] | 
2 | < 1000 nM | < 1000 nM |  | Fc1cncc(CNc2ccc(Cc3c[nH]c4ncc(Cl)cc34)cn2)c1 [P-0324, [5-(5-chloro-1H-pyrrolo[2,3-b]pyridin-3-ylmethyl)-pyridin-2-yl]-(5-fluoro-pyridin-3-ylmethyl)-amine] | 
3 | < 1000 nM | < 1000 nM |  | O=C(c1cnc(NCc2ccc(F)cc2)s1)c1c[nH]c2ncccc12 [P-0177, [2-(4-fluoro-benzylamino)-thiazol-5-yl]-(1H-pyrrolo[2,3-b]pyridin-3-yl)-methanone] | 
4 | < 1000 nM |  | < 1000 nM | O=C(Nc1cccc(F)c1)Nc1ccc(Cc2c[nH]c3ncccc23)cn1 [P-0412, 1-(3-fluoro-phenyl)-3-[5-(1H-pyrrolo[2,3-b]pyridin-3-ylmethyl)-pyridin-2-yl]-urea] | 
5 |  | < 1000 nM |  | Fc1cncc(CNc2nc(Cl)c(Cc3c[nH]c4ncc(Cl)cc34)s2)c1 [P-0231, [4-Chloro-5-(5-chloro-1H-pyrrolo[2,3-b]pyridin-3-ylmethyl)-thiazol-2-yl]-(5-fluoro-pyridin-3-ylmethyl)-amine] | 
6 | < 1000 nM |  | < 1000 nM | Cn1cc(-c2cnc3[nH]cc(Cc4cc(NCc5ccc(F)cc5)nn4C)c3c2)cn1 [P-0180, (4-Fluoro-benzyl)-{1-methyl-5-[5-(1-methyl-1H-pyrazol-4-yl)-1H-pyrrolo[2,3-b]pyridin-3-ylmethyl]-1H-pyrazol-3-yl}-amine] | 
7 | < 1000 nM | < 1000 nM | < 1000 nM | Cn1cc(-c2cnc3[nH]cc(Cc4ccc(NCc5ccc(C(F)(F)F)nc5)nc4Cl)c3c2)cn1 [P-0179, {6-Chloro-5-[5-(1-methyl-1H-pyrazol-4-yl)-1H-pyrrolo[2,3-b]pyridin-3-ylmethyl]-pyridin-2-yl}-(6-trifluoromethyl-pyridin-3-ylmethyl)-amine] | 
8 | < 1000 nM |  | < 1000 nM | Cc1cccc(CNc2nc(Cl)c(Cc3c[nH]c4ncccc34)s2)n1 [P-0171, [4-Chloro-5-(1H-pyrrolo[2,3-b]pyridin-3-ylmethyl)-thiazol-2-yl]-(6-methyl-pyridin-2-ylmethyl)-amine] | 
9 |  | < 1000 nM |  | O=C(c1ccc(NCc2ccccc2F)nc1)c1c[nH]c2ncccc12 [P-0403, [6-(2-fluoro-benzylamino)-pyridin-3-yl]-(1H-pyrrolo[2,3-b]pyridin-3-yl)-methanone] | 
10 | < 1000 nM |  | < 1000 nM | FC(F)(F)Oc1ccccc1CNc1ncc(Cc2c[nH]c3ncccc23)cn1 [P-0303, [5-(1H-Pyrrolo[2,3-b]pyridin-3-ylmethyl)-pyrimidin-2-yl]-(2-trifluoromethoxy-benzyl)-amine] | 
11 | < 1000 nM | < 1000 nM |  | Fc1ccc(CNc2nc(Cl)c(Cc3c[nH]c4ncccc34)s2)cc1 [P-0156, [4-Chloro-5-(1H-pyrrolo[2,3-b]pyridin-3-ylmethyl)-thiazol-2-yl]-(4-fluoro-benzyl)-amine] | 
12 |  | < 1000 nM |  | COc1cncc(CNc2nc(Cl)c(Cc3c[nH]c4ncccc34)s2)c1 [P-0207, [4-Chloro-5-(1H-pyrrolo[2,3-b]pyridin-3-ylmethyl)-thiazol-2-yl]-(5-methoxy-pyridin-3-ylmethyl)-amine] | 
13 | < 1000 nM | < 1000 nM |  | Fc1ccc(CNc2nc(Cl)c(Cc3c[nH]c4ncccc34)s2)nc1 [P-0206, [4-Chloro-5-(1H-pyrrolo[2,3-b]pyridin-3-ylmethyl)-thiazol-2-yl]-(5-fluoro-pyridin-2-ylmethyl)-amine] | 
14 | < 1000 nM | < 1000 nM |  | Clc1ccc(CNc2nc(Cl)c(Cc3c[nH]c4ncc(Cl)cc34)s2)nc1 [P-0203, [4-Chloro-5-(5-chloro-1H-pyrrolo[2,3-b]pyridin-3-ylmethyl)-thiazol-2-yl]-(5-chloro-pyridin-2-ylmethyl)-amine] | 
15 | < 1000 nM | < 1000 nM |  | Cc1cccc(CNc2nc(Cl)c(Cc3c[nH]c4ncc(Cl)cc34)s2)n1 [P-0255, [4-Chloro-5-(5-chloro-1H-pyrrolo[2,3-b]pyridin-3-ylmethyl)-thiazol-2-yl]-(6-methyl-pyridin-2-ylmethyl)-amine] | 
16 | < 1000 nM | < 1000 nM |  | Cc1cnc2[nH]cc(Cc3ccc(NCc4c(F)cccc4F)nc3)c2c1 [P-0341, (2,6-Difluoro-benzyl)-[5-(5-methyl-1H-pyrrolo[2,3-b]pyridin-3-ylmethyl)-pyridin-2-yl]-amine] | 
17 | < 1000 nM | < 1000 nM |  | Cc1nc(CNc2nc(Cl)c(Cc3c[nH]c4ncc(Cl)cc34)s2)cs1 [P-0201, [4-Chloro-5-(5-chloro-1H-pyrrolo[2,3-b]pyridin-3-ylmethyl)-thiazol-2-yl]-(2-methyl-thiazol-4-ylmethyl)-amine] | 
18 | < 1000 nM |  | < 1000 nM | Cc1nn(C(=O)NCCc2ccc(F)cc2)c(C)c1Cc1c[nH]c2ncc(Cl)cc12 [P-0157, 4-(5-Chloro-1H-pyrrolo[2,3-b]pyridin-3-ylmethyl)-3,5-dimethyl-pyrazole-1-carboxylic acid [2-(4-fluoro-phenyl)-ethyl]-amide] | 
19 |  |  |  | Cc1ccc(NC(=O)c2ccc(CN3CCN(C)CC3)cc2)cc1Nc1nccc(-c2cccnc2)n1 [STI571] | did not inhibit the cells
20 |  | < 1000 nM |  | COc1cncc(CNc2nc(Cl)c(Cc3c[nH]c4ncc(Cl)cc34)s2)c1 [P-0241, [4-Chloro-5-(5-chloro-1H-pyrrolo[2,3-b]pyridin-3-ylmethyl)-thiazol-2-yl]-(5-methoxy-pyridin-3-ylmethyl)-amine] | 
21 | < 1000 nM | < 1000 nM |  | Fc1ccc(CNc2nc(Cl)c(Cc3c[nH]c4ncc(Cl)cc34)s2)cc1 [P-0195, [4-Chloro-5-(5-chloro-1H-pyrrolo[2,3-b]pyridin-3-ylmethyl)-thiazol-2-yl]-(4-fluoro-benzyl)-amine] | 
22 | < 1000 nM |  |  | Cc1nc(NCc2ccc(F)cc2)sc1Cc1c[nH]c2ncccc12 [P-0163, (4-Fluoro-benzyl)-[4-methyl-5-(1H-pyrrolo[2,3-b]pyridin-3-ylmethyl)-thiazol-2-yl]-amine] | 
23 | < 1000 nM |  |  | Fc1cccc(CNc2ccc(Cc3c[nH]c4ncccc34)cn2)c1F [P-0362, (2,3-Difluoro-benzyl)-[5-(1H-pyrrolo[2,3-b]pyridin-3-ylmethyl)-pyridin-2-yl]-amine] | 

From US9487515B2, “Compounds modulating c-fms and/or c-kit activity and uses therefor” (Plexxikon Inc., priority 2006, dated 2016)
